Publication PMC9551036, “A selective and orally bioavailable VHL-recruiting PROTAC achieves SMARCA2 degradation in vivo” (Nature Communications, 2022)
“And” between values parts separate entries of the source, which are not always exact repeats. Equal entries are not always repeated.

What was measured:
PBRM1 = molecular target: T1, PBRM1 (Homo sapiens, UniProt Q86U86); assay: Western blot of PBRM1 degradation in NCI-H1568 cells; format: cell-based; details: SuppFig3b, per replicate
T1 construct: endogenous in cells; host or cells: NCI-H1568
T1 sequence (Q86U86 whole entry): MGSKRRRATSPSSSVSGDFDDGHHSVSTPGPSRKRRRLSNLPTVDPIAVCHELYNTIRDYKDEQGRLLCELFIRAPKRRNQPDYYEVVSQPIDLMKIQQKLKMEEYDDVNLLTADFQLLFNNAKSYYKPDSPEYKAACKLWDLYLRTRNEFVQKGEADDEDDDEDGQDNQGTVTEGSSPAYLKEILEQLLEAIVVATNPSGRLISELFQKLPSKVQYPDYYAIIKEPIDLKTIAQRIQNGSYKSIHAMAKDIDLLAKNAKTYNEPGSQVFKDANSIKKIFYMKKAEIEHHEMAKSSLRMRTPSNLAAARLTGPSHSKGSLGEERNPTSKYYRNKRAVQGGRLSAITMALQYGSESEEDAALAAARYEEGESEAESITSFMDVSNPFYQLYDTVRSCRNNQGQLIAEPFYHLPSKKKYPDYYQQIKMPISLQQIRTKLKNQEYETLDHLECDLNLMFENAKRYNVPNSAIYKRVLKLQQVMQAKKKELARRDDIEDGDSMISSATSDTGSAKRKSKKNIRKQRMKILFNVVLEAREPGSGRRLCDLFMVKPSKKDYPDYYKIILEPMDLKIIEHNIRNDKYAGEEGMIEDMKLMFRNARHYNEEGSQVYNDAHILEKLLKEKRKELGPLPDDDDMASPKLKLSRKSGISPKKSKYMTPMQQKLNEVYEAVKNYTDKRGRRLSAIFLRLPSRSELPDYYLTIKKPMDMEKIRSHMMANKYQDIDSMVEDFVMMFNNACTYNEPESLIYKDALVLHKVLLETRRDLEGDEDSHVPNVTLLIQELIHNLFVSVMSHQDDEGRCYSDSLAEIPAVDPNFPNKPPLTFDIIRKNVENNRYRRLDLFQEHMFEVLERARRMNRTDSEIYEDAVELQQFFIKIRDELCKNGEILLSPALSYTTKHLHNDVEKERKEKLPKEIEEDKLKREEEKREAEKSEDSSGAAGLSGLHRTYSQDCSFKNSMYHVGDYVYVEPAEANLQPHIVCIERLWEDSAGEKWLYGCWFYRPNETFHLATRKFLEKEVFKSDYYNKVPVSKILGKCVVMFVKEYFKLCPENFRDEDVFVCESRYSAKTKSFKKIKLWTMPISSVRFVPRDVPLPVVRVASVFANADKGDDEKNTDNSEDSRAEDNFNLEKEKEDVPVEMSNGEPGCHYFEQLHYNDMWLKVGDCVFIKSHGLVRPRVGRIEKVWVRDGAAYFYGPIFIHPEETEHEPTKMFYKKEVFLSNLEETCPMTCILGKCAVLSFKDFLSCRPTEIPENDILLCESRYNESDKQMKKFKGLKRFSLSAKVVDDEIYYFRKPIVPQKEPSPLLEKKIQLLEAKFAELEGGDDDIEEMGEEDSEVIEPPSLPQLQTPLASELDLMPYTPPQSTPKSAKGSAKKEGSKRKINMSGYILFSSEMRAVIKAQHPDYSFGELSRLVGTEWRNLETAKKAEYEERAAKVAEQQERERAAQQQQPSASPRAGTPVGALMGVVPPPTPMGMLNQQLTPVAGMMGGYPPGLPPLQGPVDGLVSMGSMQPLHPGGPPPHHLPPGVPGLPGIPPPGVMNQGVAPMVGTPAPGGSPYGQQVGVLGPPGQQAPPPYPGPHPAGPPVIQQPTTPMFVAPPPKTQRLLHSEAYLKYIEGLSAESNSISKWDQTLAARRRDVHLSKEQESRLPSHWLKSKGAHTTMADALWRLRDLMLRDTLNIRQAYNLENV
Method: Cells were seeded into 6-well plates 24 h before treatment. Next day, several wells were treated with compounds or DMSO as indicated, washed with PBS and lysed with lysis buffer (1% Triton X-100, 150 mM NaCl, 1 mM EDTA, 50 mM Tris pH 7.4, protease inhibitor cocktail (Roche), 50 units/mL benzonase nuclease (Sigma)). Lysates were cleared by centrifugation at 4 °C, at 15,800 × g for 10 min and the supernatants stored at −20 °C. Protein concentration was determined by BCA assay (Pierce) and the absorbance at 562 nm measured by spectrophotometry (NanoDrop ND1000). […] Western blot images were obtained through detection of SMARCA2 (Sigma #HPA029981 RRID:AB_10602406 1:1000), SMARCA4 (Abcam #ab108318 clone EPR3912 RRID:AB_10889900 1:1000), PBRM1 (Bethyl Laboratories #A301-591A RRID:AB_1078808 1:1000), β-actin (Cell Signalling #4970 clone 13E5 RRID:AB_2223172 1:2500) and GAPDH (Abcam #ab9485 RRID:AB_307275 1:2500) antibodies with IRDye 800CW donkey anti-rabbit secondary antibody (LI-COR #926-32213 RRID:AB_621848 1:10000) using a ChemiDoc MP imaging system (Bio-Rad). Western blots were quantified using Image Studio Lite (Licor, version 5.2) with normalisation to loading control and DMSO and further analysed using GraphPad Prism (version 9.2.0).

[1] = system: panel of cell lines (A549, HCC-364, HCC-515, HCC4006, KYSE-30, LU99, LXFA_629L, LXFA_923L, LXFL_529L, LXFL_1121L, MP38, NCI-H23, NCI-H1355, OV-90, SK-MEL-5 …); assay: Cell viability assay (CellTiter Glo) in a panel of cell lines; format: cell-based, human
Method: 500–2000 cells were seeded in white, clear bottom 96-well plates (Corning or Perkin Elmer) in 180–200 µl medium per well. The next day, compounds were added using a digital dispenser and a T0 sample was measured for reference. Cells were incubated for 144–192 h, and viability (luminescence) was measured using CellTiter Glo or CellTiter Glo 2.0 (Promega) according to manufacturer’s instructions after equilibrating cells and reagents at room temperature and 10–20 min incubation time while shaking.

Question: How did the “PBRM1 degradation, % DMSO” value (PBRM1; 1 nM) turn out when Cc1ncsc1-c1ccc(C(CCC(C)CCN2CCC(c3ccc4c(c3)n(C3CCCC3)c3nc(=O)c5c(Br)cccc5n43)CC2)NC(=O)C2CC(O)CN2C(=O)C(NC(=O)C2(F)CC2)C(C)(C)C)cc1 (stereo not shown) [ACBI2] was run?
Answer: The value was 23.1362 % DMSO and 79.6814 % DMSO and 32.6932 % DMSO.

Question: And the “PBRM1 degradation, % DMSO” value (PBRM1; 10 nM)?
Answer: Its value is 3.304 % DMSO and 17.3996 % DMSO and 0.6905 % DMSO.

Question: And the “PBRM1 degradation, % DMSO” value (PBRM1; 100 nM)?
Answer: Its value is 2.804 % DMSO and 11.7415 % DMSO and 30.9172 % DMSO.

Question: What about the “PBRM1 degradation, % DMSO” value (PBRM1; 1000 nM) of the same molecule?
Answer: Its value is 14.3896 % DMSO and 34.4025 % DMSO and 4.024 % DMSO.

Question: What about the “HillSlope (viability)” value ([1]; A549) of the same molecule?
Answer: The value was -0.487.

Question: And the “% Viability” value ([1]; A549, log10 conc -7 mol/l)?
Answer: Its value is 47.919% and 42.1211%.

Question: What about the “% Viability” value ([1]; A549, log10 conc -7.50031 mol/l) of the same molecule?
Answer: Its value is 60.413% and 52.9594%.

Question: And the “% Viability” value ([1]; A549, log10 conc -8 mol/l)?
Answer: Its value is 70.4787% and 68.1265%.

Question: What about the “% Viability” value ([1]; A549, log10 conc -8.50031 mol/l) of the same molecule?
Answer: Its value is 100.959% and 102.653%.

Question: And the “HillSlope (viability)” value ([1]; HCC4006)?
Answer: Its value is -2.51.

Question: What about the “% Viability” value ([1]; HCC4006, log10 conc -7.10735 mol/l) of the same molecule?
Answer: The value was 106.752% and 106.118%.

Question: What about the “% Viability” value ([1]; HCC4006, log10 conc -8.31158 mol/l) of the same molecule?
Answer: The value was 118.541% and 111.324%.

Question: What about the “HillSlope (viability)” value ([1]; HCC-364) of the same molecule?
Answer: Its value is -2.992.

Question: And the “% Viability” value ([1]; HCC-364, log10 conc -7.10735 mol/l)?
Answer: The value was 39.6895% and 65.8316%.

Question: And the “% Viability” value ([1]; HCC-364, log10 conc -8.31158 mol/l)?
Answer: The value was 101.18% and 100.543%.

Question: What about the “HillSlope (viability)” value ([1]; HCC-515) of the same molecule?
Answer: The value was -0.931.

Question: What about the “% Viability” value ([1]; HCC-515, log10 conc -7 mol/l) of the same molecule?
Answer: The value was 21.3218% and 22.1794%.

Question: What about the “% Viability” value ([1]; HCC-515, log10 conc -7.50031 mol/l) of the same molecule?
Answer: Its value is 21.1243% and 26.9825%.

Question: And the “% Viability” value ([1]; HCC-515, log10 conc -8 mol/l)?
Answer: The value was 34.5235% and 34.7052%.

Question: And the “% Viability” value ([1]; HCC-515, log10 conc -8.50031 mol/l)?
Answer: The value was 51.5226% and 47.9218%.

Question: What about the “HillSlope (viability)” value ([1]; KYSE-30) of the same molecule?
Answer: The value was -1.122.

Question: And the “% Viability” value ([1]; KYSE-30, log10 conc -7.10735 mol/l)?
Answer: The value was 99.6818% and 96.2107%.

Question: And the “% Viability” value ([1]; KYSE-30, log10 conc -8.31158 mol/l)?
Answer: Its value is 107.107% and 103.099%.

Question: And the “HillSlope (viability)” value ([1]; LU99)?
Answer: Its value is -1.519.

Question: And the “% Viability” value ([1]; LU99, log10 conc -7.10735 mol/l)?
Answer: Its value is 81.59% and 77.7555%.

Question: What about the “% Viability” value ([1]; LU99, log10 conc -8.31158 mol/l) of the same molecule?
Answer: Its value is 123.387% and 114.143%.

Question: What about the “HillSlope (viability)” value ([1]; LXFA_629L) of the same molecule?
Answer: The value was -0.7355.

Question: And the “% Viability” value ([1]; LXFA_629L, log10 conc -7 mol/l)?
Answer: The value was 28.2712% and 27.4037%.

Question: And the “% Viability” value ([1]; LXFA_629L, log10 conc -7.50031 mol/l)?
Answer: Its value is 41.2713% and 34.5184%.

Question: And the “% Viability” value ([1]; LXFA_629L, log10 conc -8 mol/l)?
Answer: Its value is 57.9035% and 54.0045%.

Question: And the “% Viability” value ([1]; LXFA_629L, log10 conc -8.50031 mol/l)?
Answer: Its value is 89.2294% and 82.1746%.

Question: What about the “HillSlope (viability)” value ([1]; LXFA_923L) of the same molecule?
Answer: The value was -0.4788.

Question: What about the “% Viability” value ([1]; LXFA_923L, log10 conc -7.50031 mol/l) of the same molecule?
Answer: The value was 31.729% and 41.6954%.

Question: And the “% Viability” value ([1]; LXFA_923L, log10 conc -8 mol/l)?
Answer: The value was 41.6215% and 47.8343%.

Question: What about the “% Viability” value ([1]; LXFA_923L, log10 conc -8.50031 mol/l) of the same molecule?
Answer: The value was 63.1043% and 68.2132%.

Question: What about the “HillSlope (viability)” value ([1]; LXFL_529L) of the same molecule?
Answer: The value was -0.4813.

Question: What about the “% Viability” value ([1]; LXFL_529L, log10 conc -7.50031 mol/l) of the same molecule?
Answer: The value was 17.7092% and 18.3663%.

Question: What about the “% Viability” value ([1]; LXFL_529L, log10 conc -8 mol/l) of the same molecule?
Answer: Its value is 23.2341% and 22.4794%.

Question: And the “% Viability” value ([1]; LXFL_529L, log10 conc -8.50031 mol/l)?
Answer: The value was 25.5623% and 26.9316%.

Question: What about the “HillSlope (viability)” value ([1]; LXFL_1121L) of the same molecule?
Answer: The value was -1.483.

Question: And the “% Viability” value ([1]; LXFL_1121L, log10 conc -7.50031 mol/l)?
Answer: Its value is 92.1257% and 100.242%.

Question: What about the “% Viability” value ([1]; LXFL_1121L, log10 conc -8 mol/l) of the same molecule?
Answer: The value was 96.5968% and 112.339%.

Question: What about the “% Viability” value ([1]; LXFL_1121L, log10 conc -8.50031 mol/l) of the same molecule?
Answer: Its value is 103.275% and 116.726%.

Question: And the “HillSlope (viability)” value ([1]; MP38)?
Answer: Its value is -1.603.

Question: And the “% Viability” value ([1]; MP38, log10 conc -7.50031 mol/l)?
Answer: The value was 10.4737% and 10.5264%.

Question: What about the “% Viability” value ([1]; MP38, log10 conc -8 mol/l) of the same molecule?
Answer: The value was 48.5822% and 44.1126%.

Question: And the “% Viability” value ([1]; MP38, log10 conc -8.50031 mol/l)?
Answer: Its value is 84.8854% and 80.6261%.

Question: What about the “HillSlope (viability)” value ([1]; NCI-H23) of the same molecule?
Answer: Its value is -0.9596.

Question: And the “% Viability” value ([1]; NCI-H23, log10 conc -7.10735 mol/l)?
Answer: Its value is 77.4555% and 94.2831%.

Question: What about the “% Viability” value ([1]; NCI-H23, log10 conc -8.31158 mol/l) of the same molecule?
Answer: Its value is 93.614% and 103.354%.

Question: And the “HillSlope (viability)” value ([1]; NCI-H1355)?
Answer: The value was -1.475.

Question: What about the “% Viability” value ([1]; NCI-H1355, log10 conc -8.31158 mol/l) of the same molecule?
Answer: The value was 91.2593% and 85.8715%.

Question: And the “HillSlope (viability)” value ([1]; OV-90)?
Answer: The value was -0.9956.

Question: And the “% Viability” value ([1]; OV-90, log10 conc -7.10735 mol/l)?
Answer: Its value is 57.2489% and 75.2258%.

Question: What about the “% Viability” value ([1]; OV-90, log10 conc -8.31158 mol/l) of the same molecule?
Answer: The value was 97.3183% and 109.838%.

Question: What about the “HillSlope (viability)” value ([1]; SK-MEL-5) of the same molecule?
Answer: The value was -1.006.

Question: And the “% Viability” value ([1]; SK-MEL-5, log10 conc -7.10735 mol/l)?
Answer: Its value is 3.91% and 3.091%.

Question: And the “% Viability” value ([1]; SK-MEL-5, log10 conc -8.31158 mol/l)?
Answer: The value was 29.6092% and 31.0459%.

Question: What about the “HillSlope (viability)” value ([1]; TOV-112D) of the same molecule?
Answer: The value was -1.255.

Question: What about the “% Viability” value ([1]; TOV-112D, log10 conc -7.10735 mol/l) of the same molecule?
Answer: Its value is 105.246% and 100.431%.

Question: What about the “% Viability” value ([1]; TOV-112D, log10 conc -8.31158 mol/l) of the same molecule?
Answer: The value was 103.581% and 98.4682%.
